This is an account of results in patent EP0683169A1, “8-Amino-pyrido 1,2,3-de 1,3,4 benzoxadiazine derivatives, and antibacterial agents containing them” (BAYER AG, priority 1994, dated 1995).

Assay in all cases: MIC (MHK) by agar serial dilution on Iso-Sensitest agar
What all share (assay type): cell-based

One test deals with Acinetobacter 14068. Particulars: strain 14068, ca. 10⁴ colony-forming particles per spot, 37°C, ca. 20 h, read-out: MHK-Werte. An excerpt: (§1) Die minimalen Hemmkonzentrationen (MHK) der erfindungsgemäßen Verbindungen wurden per Reihenverdünnungsverfahren auf Iso-Sensitest Agar (Oxoid) bestimmt. Für jede Prüfsubstanz wurde eine Reihe von Agarplatten hergestellt, die bei jeweils doppelter Verdünnung abfallende Konzentrationen des Wirkstoffs enthielten. Die Agarplatten wurden mit einem Multipoint-Inokulator (Denley) beimpft. Zum Beimpfen wurden Übernachtkulturen der Erreger verwandt, die zuvor so verdünnt wurden, daß jeder Impfpunkt ca. 10⁴ koloniebildende Partikel enthielt. Die beimpften Agarplatten wurden bei 37°C bebrütet, und das Keimwachstum wurde nach ca. 20 Stunden abgelesen. Der MHK-Wert (µg/ml) gibt die niedrigste Wirkstoffkonzentration an, bei der mit bloßem Auge kein Wachstum zu erkennen war.
(§2) In der nachstehenden Tabelle sind die MHK-Werte einiger der erfindungsgemäßen Verbindungen aufgeführt. Tabelle

Another test concerns E. coli Neumann. Particulars: Escherichia coli, strain Neumann, ca. 10⁴ colony-forming particles per spot, 37°C, ca. 20 h, read-out: MHK-Werte.
Description: as §1, §2

The subject of test [1] is Klebsiella pneumoniae 8085. As to conditions: strain 8085, ca. 10⁴ colony-forming particles per spot, 37°C, ca. 20 h, read-out: MHK-Werte.
Description: as §1, §2

A further test concerns E. coli ATCC 25922. Particulars: Escherichia coli, ATCC25922, strain ATCC 25922, ca. 10⁴ colony-forming particles per spot, 37°C, ca. 20 h, read-out: MHK-Werte.
Description: as §1, §2

Another test concerns Micrococcus luteus 9341. As to conditions: strain 9341, ca. 10⁴ colony-forming particles per spot, 37°C, ca. 20 h, read-out: MHK-Werte.
Description: as §1, §2

In brackets after ≈: the same amount, converted by molar mass.

`CC1CN(c2c(F)c(N)c3c(=O)c(C(=O)O)cn4c3c2OCN4C)CCN1` (centres unmarked) [Beispiel 3, 8-Amino-9-fluor-3-methyl-10-(3-methyl-1-piperazinyl)-7-oxo-2,3-dihydro-7H-pyrido[1,2,3-d,e][1,3,4]benzoxadiazin-6-carbonsäure]: the MIC in the test with Acinetobacter 14068 was 0.015 µg/mL (≈ 0.0397 µM); in the test with E. coli Neumann, 0.06 µg/mL (≈ 0.159 µM); in test [1] it was 0.12 µg/mL (≈ 0.318 µM); with E. coli ATCC 25922 it was 0.06 µg/mL (≈ 0.159 µM); with Micrococcus luteus 9341 it was 0.015 µg/mL (≈ 0.0397 µM).
On to `CN1COc2c(N3CCC(O)C3)c(F)c(N)c3c(=O)c(C(=O)O)cn1c23` (centres unmarked) [Beispiel 5, 8-Amino-9-fluor-3-methyl-10-(3-hydroxy-1-pyrrolidinyl)-7-oxo-2,3-dihydro-7H-pyrido[1,2,3-d,e][1,3,4]benzoxadiazin-6-carbonsäure], for which the MIC in the test on Acinetobacter 14068 came out at 0.015 µg/mL (≈ 0.0412 µM); with E. coli Neumann it was 0.015 µg/mL (≈ 0.0412 µM); in test [1], 0.25 µg/mL (≈ 0.686 µM); in the test on E. coli ATCC 25922, 0.03 µg/mL (≈ 0.0823 µM); in the test on Micrococcus luteus 9341, 0.015 µg/mL (≈ 0.0412 µM).
Consider `CN1CCN(c2c(F)c(N)c3c(=O)c(C(=O)O)cn4c3c2OCN4C)CC1` [Beispiel 2, 8-Amino-9-fluor-3-methyl-10-(4-methyl-1-piperazinyl)-7-oxo-2,3-dihydro-7H-pyrido[1,2,3-d,e][1,3,4]benzoxadiazin-6-carbonsäure], for which the MIC turned out to be 0.015 µg/mL (≈ 0.0397 µM) in the test on Acinetobacter 14068; 0.015 µg/mL (≈ 0.0397 µM) in the test on E. coli Neumann; 0.06 µg/mL (≈ 0.159 µM) in test [1]; 0.015 µg/mL (≈ 0.0397 µM) in the test on E. coli ATCC 25922; 0.015 µg/mL (≈ 0.0397 µM) with Micrococcus luteus 9341.
Consider `CN1C[C@@H]2C[C@H]1CN2c1c(F)c(N)c2c(=O)c(C(=O)O)cn3c2c1OCN3C` [Beispiel 10], for which the MIC in the test on Acinetobacter 14068 worked out at 0.015 µg/mL (≈ 0.0385 µM); in the test with E. coli Neumann, 0.06 µg/mL (≈ 0.154 µM); in test [1] it was 0.12 µg/mL (≈ 0.308 µM); with E. coli ATCC 25922, 0.06 µg/mL (≈ 0.154 µM); with Micrococcus luteus 9341 it was 0.015 µg/mL (≈ 0.0385 µM).
